Results from paper PMC7077720, “Improvement of Peptide Affinity and Stability by Complexing to Cyclodextrin-Grafted Ammonium Chitosan” (Polymers, 2020).
Where a SMILES comes first, the peptide text is derived from it. [ ]: non-standard residue; d: D form.

What was measured:
[1] = Complex association constant (Benesi–Hildebrand method), fluorescence spectrometry; assay type: binding; details: rounded value quoted in text; technique not named at the place
Description: Complex association constant (Ka) was determined by spectrometric titration based on the Benesi–Hildebrand method and performed both by UV-VIS and fluorescence spectrometry. Two sets of dilutions were prepared (Tables S2–S5, Supplementary material). In the case of UV spectrometry, 275 μM DAL was kept, whereas MCD concentrations varied, either as MCD alone or as conjugated (N^+-rCh-MCD). The solutions were prepared and analyzed after being equilibrated for 1 h at room temperature. UV spectra in the range 220–325 nm were collected, and the intensity of absorbance at 282 nm was normalized on the correspondent value at 247 nm. Diversely, for fluorescence spectroscopy evaluations, DAL concentration was kept at 70 μM, and samples were analyzed by using a PerkinElmer LS 45 fluorimeter, with excitation λ set at 270 nm and the emission spectrum collected between 340 and 270 nm. The variation of fluorescence intensity was evaluated at 304 nm, and it was normalized on 285 nm. […]
The determination of the association constant (Ka) for complexes of DAL/MCD and of DAL/N^+-rCh-MCD was performed both by UV and fluorescence spectrometry. Both techniques exploited the gradual variation of DAL absorbance or fluorescence in the presence of increasing amounts of host agent. […]

[2] = biological target: T1, α-chymotrypsin (CHT) (Bos taurus, UniProt P00766); test: Stability under enzymatic hydrolysis by α-chymotrypsin, residual DAL by HPLC; assay type: in vitro ADME; details: 37 °C
T1 construct: purchased Sigma-Aldrich (St. Louis, MO, USA)
Description: GPC (Gel permeation chromatography) and HPLC analyses were carried out with a Perkin-Elmer instrument (Perkin-Elmer, Waltham, MA, USA), consisting of a Series 200 LC-290 AT pump, Rheodyne injector with a loop of 20 μL, UV-VIS SPD–6 AV detector, and Turbochrom Navigator software (Turbochrom 6.1, Perkin-Elmer, Waltham, MA, USA ). For GPC analyses, the standard pullulans were employed; the stationary phase was an X-stream H2O Mixed Bed 50 × 4.6 mm column, the mobile phase was acetate buffer 0.5 M (pH = 2.9), and the wavelength of the detector was set to 237 nm. For HPLC, the suitable mobile phase result was H2O:CH3CN = 70:30, the column was a C18 Aquapore OD-300 (Perkin-Elmer, Waltham, MA, USA) 7 µm 4.6 × 250 mm, and the wavelength of the detector was set to 227 nm.
Stock solutions of dalargin (1 mg/mL) either alone or as a 1:1 complex with MCD or polymers were mixed with α-chymotrypsin (0.36 mg/mL) solutions to obtain 0.50 mg/mL and 0.18 mg/mL (corresponding to 7.2 UI/mL) final concentrations, respectively. […] All samples were analyzed after 5 min by interrupting the digestion with temperature shock (4 °C) and extensive dilution (1:20 with cold HPLC mobile phase). Residual DAL was expressed as the percentage of initial DAL as detected by the HPLC method. […]

[3] = biological target: T1, α-chymotrypsin (CHT); test: Enzymatic hydrolysis of DAL by α-chymotrypsin followed by 1H NMR; assay type: in vitro ADME
Description: The same DAL/enzyme ratio and concentrations of components selected for HPLC were used in NMR analysis at 37 °C through the entire digestion process. DAL and α-chymotrypsin stock solutions were prepared in phosphate buffer (pH = 6.8) and mixed directly into the NMR tube containing predissolved polymers at 40 °C for 2 h.
By using the same DAL/CHT molar ratio selected for HPLC analysis, low and high frequency NMR spectral regions of dalargin, pure (Figure 7a) and in presence of CHT (Figure 7b, c), were monitored over time at 37 °C. In the binary mixture DAL/CHT, a rapid decrease of the original dalargin signals was observed already after 5 min with the simultaneous formation of new peaks, which was attributable to the digestion products. […] In order to obtain a quantitative parameter, we refer to the lifetime of the drug (tf), the specific time in which non-degraded DAL reached 6% with respect to the hydrolyzed products. If the mixture is maintained at room temperature (25 °C), the tf of DAL is extended up to 45 min, owing to a reduced activity of the enzyme.

[4] = Stability of pure DAL in water by 1H NMR; assay type: physicochemical; details: 37 °C, several days, 1H NMR chemical shifts and integrated areas
[5] = system: Caco-2 monolayers; test: In vitro protection from enzymatic degradation on Caco-2 monolayers; assay type: in vitro ADME, human; details: DAL 50 μg/mL applied apically in HBSS, 37 °C, HPLC, three experiments
Description: A Caco-2 monolayer was obtained by cell seeding (10^5 cells/well) on a polycarbonate membrane filter (pore size 0.4 μm, area 1.12 cm^2) in Corning Transwell, 12-well plates (Sigma-Aldrich, Saint Louis, MO, USA). Thereafter, 0.5 and 1.5 mL of culture medium was added to apical and basolateral compartments of the transwell inserts, respectively; the culture medium was replaced every two days for 24 days. As a rule, the experiments were performed with Caco-2 monolayers that have been grown on filter inserts for 21–29 days. By day 21, the monolayers have become differentiated with regard to the expression of many transport proteins, enzymes, and brush border hydrolases. The TransEpithelial Electrical Resistance (TEER, Ωcm^2) across the Caco-2 monolayer was determined by measuring the potential difference between the apical and basolateral sides of the transwell using the Millicell-ERS (Millipore, Milano, Italy). TEER was measured prior to each experiment to ensure the confluence of the monolayers, during transport studies (every 30 min), and at 24 h from the samples’ removal to assess monolayer stability recovery. Experiments were performed by using DAL-containing samples, which had either DAL alone or the presence of polymers and cyclodextrin. […] At the end of the experiment (3 h), the apical chambers media were collected and analyzed by HPLC for DAL content evaluation.

Compound	Association constant of DAL with host (Ka) [1] [M⁻¹]	reduction of the initial DAL content after 5 min of α-chymotrypsin ([2]; freshly prepared solutions, DAL 0.50 mg/mL alone or 1:1 with host, CHT 0.18 mg/mL (7.2 UI/mL), phosphate buffer pH 6.8, 0.4 M, HPLC-UV 227 nm, three independent experiments) [%]	stability of DAL to α-chymotrypsin, lyophilized samples redispersed in buffer ([2]; lyophilized DAL alone or 1:1 complex redispersed in PB, CHT 0.18 mg/mL, pH 6.8, 5 min, HPLC)	lifetime of the drug tf at room temperature ([3]; DAL/CHT mixture kept at 25 °C, tf = time at which non-degraded DAL reached 6%, 1H NMR) [min]	time after which digestion was almost complete ([3]; binary mixture DAL/CHT, no host, 1H NMR integrated areas, 37 °C, phosphate buffer pH 6.8, DAL 0.68 mM) [min]	stability of pure DAL in water [4]	DAL content in the apical chamber after 3 h of incubation ([5]; Caco-2 monolayers (Transwell, 21–29 days)) [µg/mL]	residual DAL in the apical chamber after 3 h of incubation ([5]; Caco-2 monolayers)
2-methyl-β-cyclodextrin [MCD]	120	–	–	–	–	–	–	–
CC(C)C[C@H](NC(=O)[C@H](Cc1ccccc1)NC(=O)CNC(=O)[C@@H](C)NC(=O)[C@@H](N)Cc1ccc(O)cc1)C(=O)N[C@@H](CCCNC(=N)N)C(=O)O [DAL, (D-Ala2)-Leu-Enkephalin-Arg] (H-Y[dA]GFLR-OH)	–	80	rapidly degraded	45	14	stable	4.1 to 7.3	8%–15%
